Assay results reported in patent publication US20240216369A1, “THE USE OF A SPLICING MODULATOR FOR A TREATMENT SLOWING PROGRESSION OF HUNTINGTON'S DISEASE” (Novartis AG, priority 2019, published 2024).
“And” between values parts separate entries of the source, which are not always exact repeats. Equal entries are not always repeated.

Columns and labels:
[1] = test system: mutant HTT protein; assay: Repeat dose timecourse study in BacHD mice: HTT protein (Western blot); type: in vivo
Method: At 72 h 168 h, 240 h and 336 h (branaplam 24 mg/kg) after the last treatment (vehicle or 24 mg/kg branaplam for 1 week or 3 weeks), blood, CSF, and tissue samples were obtained for PK and PD analysis. To collect CSF, mice were placed in a rodent anesthesia induction chamber where they are exposed to 4-5% isoflurane in 100% oxygen carrier gas. Once an appropriate plane of anesthesia was achieved, they were moved to a nose cone so that maintenance levels of isoflurane (1-3%) could be delivered throughout the procedure. The dorsal aspect of their cervical and occipital region was surgically prepped to visualize the dura mater under a microscope. A glass micropipette attached to a micromanipulator was introduced to the cisterna magna via a puncture through the dura mater at a point where no vasculature was visualized, and CSF was allowed to flow into the micropipette via capillary action. After approximately 15-30 minutes, the micropipette was removed from the cisterna magna, the CSF sample was transferred into Eppendorf tubes, flash frozen in liquid nitrogen, and stored at −80° C.
Following CSF collection, mice were kept under anesthesia with isoflurane. Blood was obtained via submandibular vein bleeds and collected for RNA extraction (PD analysis) using RNAprotect Animal Blood Tubes, and plasma (PK analysis) using K2EDTA coated tubes. Cells were removed from plasma by centrifugation for 10 min at 2000×g at 4° C., and plasma samples were stored at −80° C. Following blood collection, mice were given a lethal dose of ketamine/xylazine ([…] of a 10 mg:1 mg), and perfused with 18 mL of 0.9% cold saline mixed with 2 mL of RNAlater (Ambion) solution for tissue collection. Liver, skeletal muscle, brain striatum, brain cortex, hemibrain and cerebellum samples were flash frozen in liquid nitrogen and stored at −80° C.
Snap-frozen mouse tissue samples were homogenized in RIPA buffer with protease and phosphatase inhibitor (Thermo Scientific) by Precellys at 6000 rpm for 40 sec. Supernatant was obtained by centrifugation for 20 min at 13,000 rpm at 4° C. Total protein concentration was quantified using the BCA protein Assay (Thermo Scientific). Samples were resolved in 3-8% Tris-Acetate protein gel under reducing condition. Proteins were transferred onto PVDF membrane (Millipore) and western blot analysis was performed using […] anti-Huntingtin antibody (Millipore #MAB2166), mouse anti-actin (Sigma, #A5316) and mouse anti-vinculin (Bio-Rad, #MCA465). Protein bands were quantified by Image J.
With a view to characterize the time course of HTT protein lowering and recovery and to better model the PK-PD relationship an extended time-course study was performed. BacHD mice received three weekly, oral doses of 24 mg/kg branaplam for three weeks. […]

[2] = GastroPlus ACAT/PBPK physico-chemical and formulation input parameters; settings: for controlled-release dissolution profile, release: fitted to plasma profile
Description: The pharmacokinetic (PK) model in adult subjects was developed using an Advanced Compartmental And Transit (ACAT)/Physiologically Based Pharmacokinetic (PBPK) model in GastroPlus™ software, Version 9.6 (SimulationPlus, Lancaster, CA, USA).
• Principle set-up of a pediatric ACAT/PBPK model in GastroPlus™ software including physico-chemical parameters, physiological parameters, and formulation factors. The ACAT model was linked to a full PBPK model in which tissue-to-plasma concentration ratios were estimated via in silico method provided by GastroPlus™ software. • Estimation of the clearance (CL) using plasma concentrations of branaplam from an open-label multi-part first-in-human proof of concept study of oral branaplam, Part 1 only. The aim of Part 1 of this study was to determine the safety and tolerability of ascending weekly doses and to estimate the maximum tolerated dose (MTD) of oral/enteral branaplam (formulation described in Example 3) in infants with Type 1 SMA. All patients had exactly 2 copies of the SMN2 gene. Patients were dosed once weekly with branaplam. The branaplam doses were escalated in subsequent cohorts until MTD was determined or when PK results confirmed that the MTD could not be reached due to a potential pharmacokinetic exposure plateau at higher doses. The starting dose referring to the free base was 6 mg/m^2 (equal to 0.3125 mg/kg). Subsequent doses were 12 mg/m^2, 24 mg/m^2, 48 mg/m^2 and 60 mg/m^2 (0.625 mg/kg, 1.25 mg/kg, 2.5 mg/kg and 3.125 mg/kg, respectively). 14 patients were enrolled in Part 1; 13 patients were exposed to branaplam. The duration of exposure ranged from 4-33 months, 7 patients remain in the study. Six of the 7 patients are receiving 60 mg/m^2, 1 patient is receiving 48 mg/m^2.
The in vivo solubility parameter for branaplam was newly assessed to consider the impact of the solubilizer cyclodextrin (CD), which is present in the currently used formulation (Example 3), on the solubility of branaplam. […]

[3] = test system: tHTT; assay: Mutant and total HTT multiplex HTRF assay in Q48 HTT human embryonic stem cell line: tHTT; type: cell-based; settings: Q48 HTT hESC, 48 hours
Outline: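 Q48 HTT hESCs from HD donors were treated with compound for 48 h at 37 °C after 24 h adherence, then lysed. Lysates were read by multiplex HTRF with N-terminal donor, polyQ (MW1) and post-polyQ (MAB2166) antibodies for 4-6 h at RT. Donor/acceptor ratios give relative mHTT and tHTT; pIC50 reported.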

[4] = 24 mg/kg, 3 weeks, time after last dose

CC1(C)CC(Oc2ccc(-c3ccc(-c4cn[nH]c4)cc3O)nn2)CC(C)(C)N1 [Compound 18, 5-(1H-pyrazol-4-yl)-2-(6-((2,2,6,6-tetramethylpiperidin-4-yl)oxy)pyridazin-3-yl)phenol]
maximal HTT protein lowering (relative to vehicle) ([1]; 24 mg/kg oral three times weekly for 3 weeks, 72 h after last dose): approximately 45%
mutant HTT protein, 1 week versus 3 weeks of dosing ([1]; 24 mg/kg oral, three times weekly): time-dependent lowering trend
return of HTT protein to baseline, cortex [1, 4]: 72 to 168 h
return of HTT protein to baseline, striatum [1, 4]: 72 to 336 h
controlled-release dissolution profile, release ([2]; at 0.25 h): 2%
controlled-release dissolution profile, release ([2]; at 1 h): 5%
Solubility ([2]; pH 6.8, optimized with GastroPlus on observed concentration-time data (cyclodextrin formulation), listed as branaplam): 0.088 at pH 6.8 (Optimized value using GastroPlus ™ software mg/mL and 0.088 at pH 6.8 (Optimized value using GastroPlus ™ based mg/mL
tHTT pIC50 [3]: 7.371
